Patent US20210015884A1 (priority 2018, published 2021)

Assays:
[1] = system: m^6A methylation in viral RNA; format: cell-based, influenza A virus
IVA/PC virus [2] = format: cell-based, influenza A virus
IVA/PC virus [3] = test: microbe, parasite or virus in culture; format: cell-based; settings: Influenza A virus, MDCK, read-out: IC50 of Zanamivir

5′ GGACUGGACUGGACUGGACU 3′ (chemistry not given here) [Target]
m^6A methylation in corresponding viral RNA [1]: concomitant decrease

Cc1ccc(Cl)c(Nc2ccccc2C(=O)O)c1Cl [MA, meclofenamic acid]
effect on viral resistance to Zanamivir (IVA/PC virus [2]): potentiates viral resistance to Zanamivir

CC(=O)N[C@H]1[C@H]([C@H](O)[C@H](O)CO)OC(C(=O)O)=C[C@@H]1N=C(N)N [Zanamivir]
IC50 (IVA/PC virus [3]): 2 nM
